Entries after “also recorded” stand apart in the source; their conditions may differ.
What was measured:
[1] = ASCOT participants, atorvastatin 10 mg/day vs placebo, baseline vs 1 year
serum miR-122 [2] = settings: ASCOT participants (n=155), atorvastatin 10 mg/day vs placebo, baseline vs 1 year
serum miR-122 [3] = test: Statin treatment of mice: serum miR-122; settings: C57BI/6 mice, 20 mg/kg atorvastatin intraperitoneally once a day for five days
miR-122 = test: AntagomiR treatment of mice: liver miR-122 by Northern blotting and quantitative PCR; type: in vivo; settings: mouse liver
Procedure: (§1) Liver and serum samples were harvested for analysis.
MiRNA expression was assessed by Northern blot analysis as previously described (Suárez, Circ Res 2007, 100: 1164-73). Briefly, total RNA (5 μg) was separated on a 15% acrylamide TBE 8M urea gel and blotted onto a Hybond N+ nylon filter (Amersham Biosciences). […] ATP and […] polynucleotide kinase (New England Biolabs) to generate high-specific activity probes. Hybridization was carried out according to the ExpressHyb (Clontech) protocol. Following overnight membrane hybridization with specific radiolabeled probes, membranes were washed once for 30 min at 42° C. in 4×SSC/0:5% SDS and subjected to autoradiography. Blots were re-probed for 5S rRNA to control for equal loading: 5′-[…]-3′
Total RNA was isolated from liver and hepatocyte samples using TRIzol reagent (Invitrogen) according to the manufacturer's protocol. For mRNA quantification, cDNA was synthesized using iScript RT Supermix (Bio-Rad), following the manufacturer's protocol. qRT-PCR analysis was performed in triplicate using iQ SYBR green Supermix (BioRad) on an iCycler Real-Time Detection System (Eppendorf). […] For miRNA quantification, total RNA was reverse transcribed using the miScript II RT Kit (Qiagen). […] 1 μg of total RNA was reverse transcribed and gene/miRNA expression assessed as above.

miR-33 = test: AntagomiR treatment of mice: hepatic miR-33 expression; type: in vivo; settings: mouse liver, antagomiR-122 vs control antagomiRs, 65 mg/kg i.p. x3 days, day 7
Procedure: as §1
(§2) Total RNA was isolated from liver and hepatocyte samples using TRIzol reagent (Invitrogen) according to the manufacturer's protocol. For mRNA quantification, cDNA was synthesized using iScript RT Supermix (Bio-Rad), following the manufacturer's protocol. qRT-PCR analysis was performed in triplicate using iQ SYBR green Supermix (BioRad) on an iCycler Real-Time Detection System (Eppendorf). The mRNA level was normalized to GAPDH or 18S as a house keeping gene (see primer sequence in Table 2). For miRNA quantification, total RNA was reverse transcribed using the miScript II RT Kit (Qiagen). […] For mouse tissues, total liver RNA from WT mice fed a HFD were isolated using the Bullet Blender Homogenizer (Next Advance) in TRIzol. 1 μg of total RNA was reverse transcribed and gene/miRNA expression assessed as above.

[4] = AntagomiR treatment of mice: serum cholesterol; type: in vivo; settings: antagomiR-122 vs control antagomiRs, 65 mg/kg i.p. x3 days, day 7
Procedure: as §1
Blood samples were collected by retro-orbital venous plexus puncture after a 12 h overnight fast for lipid analysis. Plasma was separated by centrifugation and stored at 4° C. Total and HDL cholesterol in each sample was enzymatically measured using the T-Cholesterol and HDL-C Assay Kits (Wako Diagnostics).

[5] = system: genes implicated in cholesterol and lipid metabolism (ACC1, CTP1, FAS, SCD1, MTTP, SREBP1); test: AntagomiR treatment of mice: liver expression of genes implicated in cholesterol and lipid metabolism (qRT-PCR); type: in vivo; settings: mouse liver mRNA, antagomiR-122 65 mg/kg i.p. x3 days, day 7
Procedure: as §1, §2

hepatitis C virus = settings: 36 patients with chronic hepatitis C genotype 1 infection, Phase 2a (Janssen, N Engl J Med 2013); cited from earlier work

Molecule: CC(C)c1c(C(=O)Nc2ccccc2)c(-c2ccccc2)c(-c2ccc(F)cc2)n1CC[C@@H](O)C[C@@H](O)CC(=O)O [atorvastatin]
- total cholesterol [1]: concordant reduction
- serum miR-122 levels (serum miR-122 [2]): reduced circulating miR-122 levels; also recorded: concordant reduction
- serum miR-122 (serum miR-122 [3]): reduction of miR-122; also recorded: reduced serum miR-122

Molecule: C*A*AACACCAUUGUCACACU*C*C*A*Chol*-T [antagomiR-122]
- liver miR-122 expression (miR-122; Northern blotting / qPCR, 65 mg/kg i.p. on three consecutive days, day 7, n=5 per group, 65 mg/kg): almost complete inhibition of miR-122 expression; also recorded: reduction of liver miR-122
- relative amount of miR-122 in antagomiR-122 group (miR-122; quantitative PCR, 65 mg/kg intraperitoneally on three consecutive days, sacrificed at day 7, vs control antagomiRs, mean (standard deviation)): 0.13%+/−0.06%
- hepatic expression of miR-33 (miR-33): attenuated; also recorded: reduction of miR-33
- serum cholesterol concentration [4]: lower cholesterol levels; also recorded: reduction in serum cholesterol concentration
- expression of genes implicated in lipid metabolism (de novo lipogenesis and lipoprotein assembly) [5]: down-regulation of enzymes implicated in lipid metabolism

Molecule: miravirsen
- hepatitis C virus RNA levels (hepatitis C virus): reduced hepatitis C virus RNA levels in a dose-dependent manner

Reference: patent US20190010547A1 (Medizinische Universität Innsbruck, priority 2015, published 2019)
